This passage reports IC50 results from US12240862B2, “Inhibitors of peptidylarginine deiminases” (Gilead Sciences, Inc., priority 2020, dated 2025).

Each structure is given as a SMILES string. pIC50: −log10 of the molar value.

The target of this experiment is T1, human PAD4 (Homo sapiens, UniProt Q9UM07).
T1 construct: human PAD4 (NM_012387), A2P663, was PCR amplified; His-SUMO (N, cleaved yes); made in house; host or cells: E. coli BL21(DE3)
As to the kind of experiment: In vitro PAD4 BAEE biochemical assay. The conditions noted are these: human PAD4, BAEE substrate; 5 nM PAD4, 2 mM calcium chloride, 3 mM BAEE; geometric mean of multiple experiments. The essentials: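 Ammonia release from BAEE deimination monitored by o-phthalaldehyde amine coupling (1 h, 25 °C) after EDTA stop. Final conditions: 5 nM tag-free recombinant human PAD4 (E. coli), 2 mM CaCl2, 3 mM BAEE, pH 7.6 MOPS with DTT; 30 min compound preincubation, then 2 h reaction at 25 °C.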

T1 sequence (Q9UM07 2-663): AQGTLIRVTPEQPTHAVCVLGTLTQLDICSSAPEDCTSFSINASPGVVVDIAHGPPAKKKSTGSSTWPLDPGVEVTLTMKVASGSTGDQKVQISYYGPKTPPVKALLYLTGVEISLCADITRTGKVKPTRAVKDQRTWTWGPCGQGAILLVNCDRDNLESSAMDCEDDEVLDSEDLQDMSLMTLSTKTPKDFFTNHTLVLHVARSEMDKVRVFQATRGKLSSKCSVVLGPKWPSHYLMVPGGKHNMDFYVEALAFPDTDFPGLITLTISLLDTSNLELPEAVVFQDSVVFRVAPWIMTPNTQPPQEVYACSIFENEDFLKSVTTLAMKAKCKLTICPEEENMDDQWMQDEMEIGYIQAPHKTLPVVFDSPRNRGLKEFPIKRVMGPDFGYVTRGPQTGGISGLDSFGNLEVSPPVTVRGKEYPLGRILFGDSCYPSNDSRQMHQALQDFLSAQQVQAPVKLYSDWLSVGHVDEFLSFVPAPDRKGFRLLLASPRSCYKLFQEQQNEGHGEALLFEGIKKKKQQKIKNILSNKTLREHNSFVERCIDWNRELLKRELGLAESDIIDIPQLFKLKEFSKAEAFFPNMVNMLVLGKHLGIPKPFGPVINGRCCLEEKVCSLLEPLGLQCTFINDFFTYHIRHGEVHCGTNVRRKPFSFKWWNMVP

As to `COc1cc(C(=O)N2[C@H]3CC[C@@H]2[C@H](N)C3)cc2nc(-c3cc4ccc([C@@H](C)Nc5cnccn5)nc4n3CC3CC3)c(C)n12` [Example 263, [(1~{R},2~{R},4~{S})-2-amino-7-azabicyclo [2.2.1]heptan-7-yl]-[2-[1-(cyclopropylmethyl)-6-[(1~{R})-1-(pyrazin-2-ylamino)ethyl]pyrrolo [2,3-b]pyridin-2-yl]-5-methoxy-3-methylimidazo[1,2-a]pyridin-7-yl]methanone], the pIC50 (in general, the negative decadic logarithm of the IC50, by convention in mol/L) is 7.15.
To `COc1cc(C(=O)N2[C@H]3CC[C@@H]2[C@H](N)C3)cc2nc(-c3cc4ccc([C@@H](C)Nc5ncc(F)cn5)nc4n3CC3CC3)c(C)n12` [Example 264, [(1~{R},2~{R},4~{S})-2-amino-7-azabicyclo [2.2.1]heptan-7-yl]-[2-[1-(cyclopropylmethyl)-6-[(1~{R})-1-[(5-fluoropyrimidin-2-yl)amino]ethyl]pyrrolo[2,3-b]pyridin-2-yl]-5-methoxy-3-methylimidazo[1,2-a]pyridin-7-yl]methanone] belongs 6.87.
On to `COc1cc(C(=O)N2[C@H]3CC[C@@H]2[C@H](N)C3)cc2nc(-c3cc4ccc([C@@H](C)Nc5ncccn5)nc4n3CC3CC3)c(C)n12` [Example 265, ((1R,2R,4S)-2-amino-7-azabicyclo[2.2.1]heptan-7-yl)(2-(1-(cyclopropylmethyl)-6-((R)-1-(pyrimidin-2-ylamino)ethyl)-1H-pyrrolo[2,3-b]pyridin-2-yl)-5-methoxy-3-methylimidazo[1,2-a]pyridin-7-yl)methanone], for which the pIC50 is 7.14.
Regarding `COc1cc(C(=O)N2C[C@H]3CC[C@@H]2[C@@H]3N)cc2nc(-c3cc4ccc([C@@H](C)Nc5ncccn5)nc4n3CC3CC3)c(C)n12` [Example 266, ((1R,4R,7R)-7-amino-2-azabicyclo[2.2.1]heptan-2-yl)(2-(1-(cyclopropylmethyl)-6-((R)-1-(pyrimidin-2-ylamino)ethyl)-1H-pyrrolo[2,3-b]pyridin-2-yl)-5-methoxy-3-methylimidazo [1,2-a]pyridin-7-yl) methanone], the pIC50 is 6.47.
As to `COc1cc(C(=O)N2CCC[C@@H](N)C2)cc2nc(-c3cc4ccc([C@@H](C)NCC(F)(F)F)nc4n3CC3CC3)c(C)n12` [Example 267, [(3~{R})-3-aminopiperidin-1-yl]-[2-[1-(cyclopropylmethyl)-6-[(1~{R})-1-(2,2,2-trifluoroethylamino)ethyl]pyrrolo[2,3-b]pyridin-2-yl]-5-methoxy-3-methylimidazo[1,2-a]pyridin-7-yl]methanone], the pIC50 was 6.28.
To `COc1cc(C(=O)N2CCC[C@@H](N)C2)cc2nc(-c3cc4ccc([C@@H](C)NS(C)(=O)=O)nc4n3CC3CC3)c(C)n12` [Example 268, ~{N}-[(1~{R})-1-[2-[7-[(3~{R})-3-aminopiperidine-1-carbonyl]-5-methoxy-3-methylimidazo [1,2-a]pyridin-2-yl]-1-(cyclopropylmethyl)pyrrolo [2,3-b]pyridin-6-yl]ethyl]methanesulfonamide] belongs 6.59.
In the case of `COc1cc(C(=O)N2[C@H]3CC[C@@H]2[C@H](N)C3)cc2nc(-c3cc4ccc([C@@H](C)N5C(=O)CCC5C)nc4n3CC3CC3)c(C)n12` (some centres unmarked) [Example 269, 1-[(1~{R})-1-[2-[7-[(1~{R},2~{R},4~{S})-2-amino-7-azabicyclo[2.2.1]heptane-7-carbonyl]-5-methoxy-3-methylimidazo [1,2-a]pyridin-2-yl]-1-(cyclopropylmethyl)pyrrolo [2,3-b]pyridin-6-yl]ethyl]-5-methylpyrrolidin-2-one], the pIC50 was 7.17.
`COc1cc(C(=O)N2[C@H]3CC[C@@H]2[C@H](N)C3)cc2nc(-c3cc4ccc([C@@H](C)N5CCN(C)C5=O)nc4n3CC3CC3)c(C)n12` [Example 270, 1-[(1~{R})-1-[2-[7-[(1~{R},2~{R},4~{S})-2-amino-7-azabicyclo[2.2.1]heptane-7-carbonyl]-5-methoxy-3-methylimidazo [1,2-a]pyridin-2-yl]-1-(cyclopropylmethyl)pyrrolo [2,3-b]pyridin-6-yl]ethyl]-3-methylimidazolidin-2-one]: the pIC50 is 7.46.
In the case of `COc1cc(C(=O)N2[C@H]3CC[C@@H]2[C@H](N)C3)cc2nc(-c3cc4ccc([C@@H](C)N5CCCCC5=O)nc4n3CC3CC3)c(C)n12` [Example 271] it was 7.45; in that of `COc1cc(C(=O)N2[C@H]3CC[C@@H]2[C@H](N)C3)cc2nc(-c3cc4ccc([C@@H](C)N5CCCC5)nc4n3CC3CC3)c(C)n12` [Example 272, [(1~{R},2~{R},4~{S})-2-amino-7-azabicyclo [2.2.1]heptan-7-yl]-[2-[1-(cyclopropylmethyl)-6-[(1~{R})-1-pyrrolidin-1-ylethyl]pyrrolo[2,3-b]pyridin-2-yl]-5-methoxy-3-methylimidazo[1,2-a]pyridin-7-yl]methanone], 6.87.
On to `COc1cc(C(=O)N2[C@H]3CC[C@@H]2[C@H](N)C3)cc2nc(-c3cc4ccc([C@@H](C)N5CCNC5=O)nc4n3CC3CC3)c(C)n12` [Example 273, 1-[(1~{R})-1-[2-[7-[(1~{R},2~{R},4~{S})-2-amino-7-azabicyclo[2.2.1]heptane-7-carbonyl]-5-methoxy-3-methylimidazo [1,2-a]pyridin-2-yl]-1-(cyclopropylmethyl)pyrrolo [2,3-b]pyridin-6-yl]ethyl] imidazolidin-2-one], for which the pIC50 is 7.08.
To `COc1cc(C(=O)N2[C@H]3CC[C@@H]2[C@H](N)C3)cc2nc(-c3cc4ccc([C@@H](C)N5CCOCC5=O)nc4n3CC3CC3)c(C)n12` [Example 274, 4-[(1~{R})-1-[2-[7-[(1~{R},2~{R},4~{S})-2-amino-7-azabicyclo[2.2.1]heptane-7-carbonyl]-5-methoxy-3-methylimidazo [1,2-a]pyridin-2-yl]-1-(cyclopropylmethyl)pyrrolo [2,3-b]pyridin-6-yl]ethyl]morpholin-3-one] belongs 6.60; to `COc1cc(C(=O)N2[C@H]3CC[C@@H]2[C@H](N)C3)cc2nc(-c3cc4ccc([C@@H](C)N5CCOC5=O)nc4n3CC3CC3)c(C)n12` [Example 275, 3-((R)-1-(2-(7-((1R,2R,4S)-2-amino-7-azabicyclo[2.2.1]heptane-7-carbonyl)-5-methoxy-3-methylimidazo[1,2-a]pyridin-2-yl)-1-(cyclopropylmethyl)-1H-pyrrolo[2,3-b]pyridin-6-yl)ethyl)oxazolidin-2-one], 7.85; to `COc1cc(C(=O)N2[C@H]3CC[C@@H]2[C@H](N)C3)cc2nc(-c3cc4ccc([C@@H](C)N5CCCC5=O)nc4n3CC3CC3)c(C)n12` [Example 276, 1-[(1~{R})-1-[2-[7-[(1~{R},2~{R},4~{S})-2-amino-7-azabicyclo[2.2.1]heptane-7-carbonyl]-5-methoxy-3-methylimidazo [1,2-a]pyridin-2-yl]-1-(cyclopropylmethyl)pyrrolo [2,3-b]pyridin-6-yl]ethyl]pyrrolidin-2-one], 7.21.
As for `COc1cc(C(=O)N2[C@H]3CC[C@@H]2[C@H](N)C3)cc2nc(-c3cc4ccc([C@@H](C)N5CCOCC5)nc4n3CC3CC3)c(C)n12` [Example 277, [(1~{R},2~{R},4~{S})-2-amino-7-azabicyclo [2.2.1]heptan-7-yl]-[2-[1-(cyclopropylmethyl)-6-[(1~{R})-1-morpholin-4-ylethyl]pyrrolo[2,3-b]pyridin-2-yl]-5-methoxy-3-methylimidazo[1,2-a]pyridin-7-yl]methanone], the pIC50 was 6.72.
To `COc1cc(C(=O)N2CCC[C@@H](N)C2)cc2nc(-c3cc4ccc([C@@H](C)N5CCOC5=O)nc4n3CC3CC3)c(C)n12` [Example 278, 3-[(1~{R})-1-[2-[7-[(3~{R})-3-aminopiperidine-1-carbonyl]-5-methoxy-3-methylimidazo [1,2-a]pyridin-2-yl]-1-(cyclopropylmethyl)pyrrolo [2,3-b]pyridin-6-yl]ethyl]-1,3-oxazolidin-2-one] belongs 6.84; to `COc1cc(C(=O)N2CCC[C@@H](N)C2)cc2nc(-c3cc4ccc([C@@H](C)N5CCCC5=O)nc4n3CC3CC3)c(C)n12` [Example 279, 1-[(1~{R})-1-[2-[7-[(3~{R})-3-aminopiperidine-1-carbonyl]-5-methoxy-3-methylimidazo [1,2-a]pyridin-2-yl]-1-(cyclopropylmethyl)pyrrolo [2,3-b]pyridin-6-yl]ethyl] pyrrolidin-2-one], 6.63; to `COc1cc(C(=O)N2C[C@@H](N)[C@H](F)C2)cc2nc(-c3cc4ccc(N(C(F)F)S(C)(=O)=O)nc4n3CC3CC3)c(C)n12` [Example 280, ~{N}-[2-[7-[(3~{R}, 4~{R})-3-amino-4-fluoropyrrolidine-1-carbonyl]-5-methoxy-3-methylimidazo [1,2-a]pyridin-2-yl]-1-(cyclopropylmethyl)pyrrolo[2,3-b]pyridin-6-yl]-~{N}-(difluoromethyl) methanesulfonamide], 4.47.
Consider `COc1cc(C(=O)N[C@@H]2CNCC[C@H]2C)cc2nc(-c3cc4ccc(N(C(F)F)S(C)(=O)=O)nc4n3CC3CC3)c(C)n12` [Example 281, 2-[1-(cyclopropylmethyl)-6-[difluoromethyl (methylsulfonyl)amino]pyrrolo[2,3-b]pyridin-2-yl]-5-methoxy-3-methyl-~{N}-[(3~{S},4~{R})-4-methylpiperidin-3-yl] imidazo[1,2-a]pyridine-7-carboxamide], for which the pIC50 is 4.79.
To `COc1cc(C(=O)N[C@H]2CNCC[C@@H]2C)cc2nc(-c3cc4ccc(N(C(F)F)S(C)(=O)=O)nc4n3CC3CC3)c(C)n12` [Example 282, 2-[1-(cyclopropylmethyl)-6-[difluoromethyl (methylsulfonyl)amino]pyrrolo[2,3-b]pyridin-2-yl]-5-methoxy-3-methyl-~{N}-[(3~{R},4~{S})-4-methylpiperidin-3-yl]imidazo[1,2-a] pyridine-7-carboxamide] belongs 4.98.
